Measurements published in ChEMBL document CHEMBL4184117, “Design, synthesis and anti-malarial activities of synthetic analogs of biselyngbyolide B, a Ca2+ pump inhibitor from marine cyanobacteria” (Bioorg Med Chem Lett, 2018).

What was measured:
[1] = system: HeLa; assay: Growth inhibition of human HeLa cells after 72 hrs by MTT assay; format: cell-based
[2] = system: MRC5; assay: Growth inhibition of human MRC5 cells after 7 days by MTT assay; format: cell-based; details: MRC5, 168 h
[3] = system: Plasmodium falciparum; assay: Antimalarial activity against chloroquine-sensitive Plasmodium falciparum FCR3 infected in human type A+ erythrocytes assessed as growth inhibition after 72 hrs by LDH assay; format: functional, organism-based; details: FCR3, 72 h
[4] = system: Plasmodium falciparum; assay: Antimalarial activity against chloroquine-resistant Plasmodium falciparum K1 infected in human type A+ erythrocytes assessed as growth inhibition after 72 hrs by LDH assay; format: functional, organism-based; details: K1, 72 h
[5] = target: Sarcoplasmic/endoplasmic reticulum calcium ATPase 1 (Homo sapiens, UniProt O14983); assay: Inhibition of SERCA1a (unknown origin) ATPase activity
Sarcoplasmic/endoplasmic reticulum calcium ATPase 1, sequence (O14983 whole entry): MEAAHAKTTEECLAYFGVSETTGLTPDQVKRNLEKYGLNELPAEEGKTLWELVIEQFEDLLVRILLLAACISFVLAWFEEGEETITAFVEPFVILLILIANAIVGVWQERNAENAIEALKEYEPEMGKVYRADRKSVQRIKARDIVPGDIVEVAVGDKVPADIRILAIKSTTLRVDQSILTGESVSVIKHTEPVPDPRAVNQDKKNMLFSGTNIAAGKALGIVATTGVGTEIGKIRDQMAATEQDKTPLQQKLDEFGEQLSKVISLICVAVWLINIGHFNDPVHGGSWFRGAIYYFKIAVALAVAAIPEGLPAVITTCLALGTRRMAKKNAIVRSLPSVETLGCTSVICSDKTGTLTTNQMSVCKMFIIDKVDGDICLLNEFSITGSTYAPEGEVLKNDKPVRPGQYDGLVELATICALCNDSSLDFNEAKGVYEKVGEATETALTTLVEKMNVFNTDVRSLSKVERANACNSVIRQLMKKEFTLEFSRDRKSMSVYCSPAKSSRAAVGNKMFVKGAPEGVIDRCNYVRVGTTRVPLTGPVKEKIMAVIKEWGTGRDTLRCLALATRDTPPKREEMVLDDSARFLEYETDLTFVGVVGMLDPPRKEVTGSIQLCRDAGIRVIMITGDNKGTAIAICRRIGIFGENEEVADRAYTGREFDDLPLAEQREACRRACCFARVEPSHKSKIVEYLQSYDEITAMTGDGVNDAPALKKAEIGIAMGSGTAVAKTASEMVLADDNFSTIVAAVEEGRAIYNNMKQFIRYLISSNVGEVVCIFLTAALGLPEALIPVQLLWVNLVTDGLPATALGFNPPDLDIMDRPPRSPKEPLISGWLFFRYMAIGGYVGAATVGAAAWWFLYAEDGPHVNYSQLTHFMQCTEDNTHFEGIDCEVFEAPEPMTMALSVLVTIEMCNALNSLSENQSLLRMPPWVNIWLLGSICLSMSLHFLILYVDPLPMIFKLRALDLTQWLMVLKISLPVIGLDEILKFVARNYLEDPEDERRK

[6] = system: Plasmodium falciparum; assay: Antimalarial activity against Plasmodium falciparum FcB1; format: functional, organism-based; details: FcB1/Columbia
[7] = system: Plasmodium falciparum; assay: Antimalarial activity against Plasmodium falciparum 3D7; format: functional, organism-based

| SMILES | IC50 [1] [µM] | IC50 [2] [µM] | IC50 [3] [µM] | IC50 [4] [µM] | Ki [5] [µM] | IC50 [6] [µM] | IC50 [7] [µM] |
| --- | --- | --- | --- | --- | --- | --- | --- |
| CO[C@H]1C/C=C/[C@@H](O)CC(=O)O[C@@H](/C=C(/C)CNC(C)=O)C/C=C/C=C/C[C@H](C)/C=C/1C | 4.9 | 3 | 14 | 19 | – | – | – |
| C/C=C/C/C(C)=C\[C@H]1C/C=C/C=C/C[C@H](C)/C=C(\C)[C@@H](OC)C/C=C/[C@@H](O[C@@H]2O[C@H](CO)[C@@H](O)[C@H](OC)[C@H]2O)CC(=O)O1 | 2.5 | 0.4 | 4.4 | 3.4 | 0.019 | – | – |
| CCNC(=O)/C(C)=C\[C@H]1C/C=C/C=C/C[C@H](C)/C=C(\C)[C@@H](OC)C/C=C/[C@@H](O)CC(=O)O1 | 9.2 | 2.9 | 17 | 16 | – | – | – |
| C/C=C/C/C(C)=C\[C@H]1C/C=C/C=C/C[C@H](C)/C=C(\C)[C@@H](OC)C/C=C/[C@@H](O)CC(=O)O1 | 0.0028 | 0.23 | 23.5 | 24 | 0.017 | – | – |
| CO[C@H]1C/C=C/[C@@H](O)CC(=O)O[C@@H](/C=C(/C)CO)C/C=C/C=C/C[C@H](C)/C=C/1C | > 30 | 19 | 24 | > 31 | – | – | – |
| CC(=O)C1=C(O)[C@@H]2[C@H]3c4c[nH]c5cccc(c45)C[C@H]3C(C)(C)N2C1=O [CYCLOPIAZONIC ACID] | – | – | – | – | 1.8 | 4.9 | 8.8 |
| C/C=C(/C)C(=O)O[C@H]1C(C)=C2[C@H]([C@@H]1OC(=O)CCCCCCC)[C@@](C)(OC(C)=O)C[C@H](OC(=O)CCC)[C@@]1(O)[C@H]2OC(=O)[C@@]1(C)O [THAPSIGARGIN] | – | – | – | – | 0.0001 | – | – |
